From US6924309B2 (Children, Youth and Women's Health Service Incorporated, priority 1999, dated 2005)

What was measured:
15-LO [1] = target: T1, 15-LO (Glycine max, UniProt P08170); experiment: Effect on 15-LO catalysed oxidation of arachidonic acid; assay type: biochemical, soybean
T1 construct: purchased Sigma Chemical Company
T1 sequence (P08170 1-839): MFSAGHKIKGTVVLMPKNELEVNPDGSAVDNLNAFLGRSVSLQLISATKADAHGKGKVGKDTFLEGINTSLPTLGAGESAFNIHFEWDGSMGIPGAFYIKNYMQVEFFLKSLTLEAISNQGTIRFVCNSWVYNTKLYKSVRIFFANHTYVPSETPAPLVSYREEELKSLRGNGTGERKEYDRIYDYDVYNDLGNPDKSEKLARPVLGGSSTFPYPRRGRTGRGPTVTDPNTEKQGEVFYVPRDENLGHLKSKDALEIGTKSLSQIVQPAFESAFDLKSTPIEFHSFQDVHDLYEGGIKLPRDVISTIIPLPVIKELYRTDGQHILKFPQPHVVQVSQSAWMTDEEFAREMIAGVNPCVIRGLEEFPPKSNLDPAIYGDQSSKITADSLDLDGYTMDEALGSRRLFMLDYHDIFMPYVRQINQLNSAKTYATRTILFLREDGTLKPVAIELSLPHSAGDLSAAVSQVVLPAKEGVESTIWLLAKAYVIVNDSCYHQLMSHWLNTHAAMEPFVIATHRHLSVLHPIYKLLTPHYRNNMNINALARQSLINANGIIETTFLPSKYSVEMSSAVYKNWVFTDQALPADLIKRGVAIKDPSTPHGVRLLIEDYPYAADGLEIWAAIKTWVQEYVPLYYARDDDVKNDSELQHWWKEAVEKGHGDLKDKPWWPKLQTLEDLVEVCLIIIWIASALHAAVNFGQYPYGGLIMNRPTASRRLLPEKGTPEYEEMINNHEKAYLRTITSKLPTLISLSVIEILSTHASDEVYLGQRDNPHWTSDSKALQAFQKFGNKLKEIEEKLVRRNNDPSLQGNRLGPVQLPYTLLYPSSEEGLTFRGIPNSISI

5-LO = experiment: Effect on 5-LO catalysed oxidation of arachidonic acid; assay type: biochemical
12-LO [2] = target: T2, 12-LO (Sus scrofa, UniProt P16469); experiment: Effect on 12-LO catalysed oxidation of arachidonic acid; assay type: biochemical, porcine
T2 construct: purchased Cayman Chemical Company
T2 sequence (P16469 1-663): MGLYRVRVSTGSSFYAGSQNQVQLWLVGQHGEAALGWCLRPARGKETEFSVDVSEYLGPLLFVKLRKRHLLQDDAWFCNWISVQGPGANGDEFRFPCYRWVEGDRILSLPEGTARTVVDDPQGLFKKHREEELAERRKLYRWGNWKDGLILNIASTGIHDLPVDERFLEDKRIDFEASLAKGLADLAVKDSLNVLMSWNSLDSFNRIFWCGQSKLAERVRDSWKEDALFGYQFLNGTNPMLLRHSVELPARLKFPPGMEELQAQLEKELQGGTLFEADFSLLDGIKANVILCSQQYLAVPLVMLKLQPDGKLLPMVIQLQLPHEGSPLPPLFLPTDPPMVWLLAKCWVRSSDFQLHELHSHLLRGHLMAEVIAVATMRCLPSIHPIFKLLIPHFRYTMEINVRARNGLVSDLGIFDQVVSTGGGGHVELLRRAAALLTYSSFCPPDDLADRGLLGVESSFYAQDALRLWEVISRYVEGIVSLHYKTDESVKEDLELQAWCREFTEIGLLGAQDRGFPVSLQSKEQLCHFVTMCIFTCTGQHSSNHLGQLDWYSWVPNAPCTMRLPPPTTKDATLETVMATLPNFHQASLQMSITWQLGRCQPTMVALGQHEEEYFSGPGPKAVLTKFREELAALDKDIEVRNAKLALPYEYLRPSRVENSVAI

15-LO [3] = target: T1, 15-LO; experiment: 15-LO catalysed oxidation of the nitro compounds (substrate test); assay type: biochemical, soybean; conditions: for Substrate for 15-LO: pH 9.0 buffer, UV 234 nm
Description: (§1) Based on this consideration, 5-LO, 12-LO and 15-LO catalysed oxidation of the nitro compounds (4a, 4b, 6a, 6b, 8a and 8b) was investigated. Each of the nitro compounds was treated with 15-LO in pH 9.0 buffer (or 5-LO in pH 6.3 buffer and 12-LO in pH 7.4 buffer), and the formation of 15-hydroperoxy derivatives (or 5-hydroperoxy or 12-hydroperoxy derivatives) over time was monitored by UV spectroscopy at 234 nm.

12-LO [4] = target: T2, 12-LO; experiment: 12-LO catalysed oxidation of the nitro compounds (substrate test); assay type: biochemical, porcine; conditions: pH 7.4 buffer, UV 234 nm
Description: as §1

human neutrophils [5] = experiment: Neutrophil degranulation: release of β-glucuronidase; assay type: cell-based; conditions: 20 μg/ml
Description: (§2) The activation of human neutrophils by nitro compounds was assessed by the ability to stimulate superoxide production (chemiluminescence response) and release of lysosomal enzymes from specific and azurophilic granules. Neutrophils were prepared from whole blood taken from normal healthy volunteers by the rapid-single step procedure^(41). Briefly, blood anticoagulated with heparin was carefully layered on a hypaque-ficoll medium of 1.114 g/ml and centrifuged in swing-out-buckets at 200 g/30 min. The leukocytes were resolved into two bands and the erythrocytes sedimented at the bottom of the tube. The second leukocyte band approximately 0.7 cm from the mononuclear cell containing band at the interface contained neutrophils of >98% purity and >99% viability (trypan blue dye exclusion criteria). The neutrophils were carefully harvested with a pasteur pipette, and washed and resuspended in tissue culture medium. The respiratory burst response of neutrophils was assessed by measuring superoxide production by the lucigenin dependent chemiluminescence assay essentially as described previously^(42). Briefly, 1×10^6 neutrophils (100 μl) in HBSS were treated with the nitro analogues of fatty acids (100 μl), then lucigenin was added and the volume made up. […]

human neutrophils [6] = experiment: Neutrophil degranulation: release of vitamin B12 binding protein; assay type: cell-based; conditions: 20 μg/ml
Description: as §2

[7] = listed as (all-Z)-4-nitrotricosa-8,11,14,17-tetraenoic acid

CCCCC/C=C\C/C=C\C/C=C\C/C=C\CCCC(CCC(=O)O)[N+](=O)[O-] (stereo not drawn) [Lx7, (a11-Z)-4-Nitrotricosa-8,11,14,17-tetraenoic acid]
Effect on 15-LO catalysed oxidation of AA (15-LO [1]): Substrate
Effect on 5-LO catalysed oxidation of AA (5-LO): Activatory
Effect on 12-LO catalysed oxidation of AA (12-LO [2]): Substrate
Vmax for 15-LO catalysed oxidation of the compound (15-LO [3]; Lineweaver Burke): Vmax = 24.48 μM/min
Vmax for 15-LO catalysed oxidation of the compound (15-LO [3]; Lineweaver Burke, listed as 6b): 24.48 µM/min
Km (15-LO [3]; Lineweaver Burke, read-out: Km for 15-LO catalysed oxidation of the compound): 8.4 µM
Substrate for 15-LO (15-LO [3]; listed as 6b): substrate
Substrate for 15-LO (15-LO [3]; [7]): good substrate
Substrate for 12-LO (12-LO [4]; listed as 6b): substrate
Substrate for 12-LO (12-LO [4]; [7]): good substrate
Release of β-glucuronidase (azurophilic granule marker) (human neutrophils [5]): as potent as 20:4n-6 and 22:6n-3
Release of vitamin B12 binding protein (specific granule marker) (human neutrophils [6]): as potent as 20:4n-6 and 22:6n-3
